Consider 87 compounds from a melting point compilation (Tetko et al.; mined from patent text by program, amines drawn as free bases though some values may be those of a salt).

The structures appear in SMILES notation.

Usually melting point stands for the temperature, or range, at which the solid turns liquid. In turn, `N#CC1CN1C(=O)Oc1ccc([N+](=O)[O-])cc1` (configuration not stated) registered a melting point of 100 to 104 °C.

`CCCCc1nc(C(C)(C)O)c(C(=O)OCC)n1Cc1ccc(-c2ccccc2C(=O)OC(C)(C)C)cc1` came in with a melting point of 92 to 93 °C. For `CCC(F)c1cc(N2CCNCC2)cc(-c2ccccc2C#N)c1Cl` (configuration not stated), the melting point is 159 °C. Next, `CC(C)C[C@H](C(=O)O)N1CC[C@]2(CCCN2C(=O)C(C)C)C1=O`: 68 to 69 °C; `S=CN1CCC(C(c2ccccc2)c2ccccc2)CC1`: 152 to 154 °C. Next, `CCC(CCNC(=O)C(C#N)=Cc1ccc(O)c(O)c1)NC(=O)C(C#N)=Cc1ccc(O)c(O)c1` (configuration not stated): 252 °C; `COc1ccc(-c2cnc(NS(=O)(=O)Cc3ccccc3)c(Cc3ccccc3)n2)cc1`: 213 to 215 °C. In turn, `CC[C@H](C)CNC(=O)[C@@H](C[C@H](O)[C@H](CC1CCCCC1)NC(=O)OC(C)(C)C)C(C)(C)O` registered a melting point of 64 to 67 °C. Next, `O=C(NC(CO)C(=O)N1CCN(CCCc2ccccc2)CC1)OCc1ccccc1` (configuration not stated): 95 to 97 °C; `CSCC(=O)Nc1ccccc1`: 100 °C. `COc1cc2c(cc1OCc1ccccc1)[C@H](CO)OC2=O` came in with a melting point of 126 to 128 °C. Take `CCOC(=O)CC1c2ccccc2C(=O)N1c1ccccc1` (configuration not stated): the melting point was in the range of 109 to 110 °C.

The compound `CCCCCCCCCCCCCCCCCCNc1nc(N)nc(N)n1` returned a melting point of 91 °C. For `O=C(NCCN1CCOCC1)c1ccc2cc(C(=O)O)[nH]c2c1`, the melting point is 227 to 233 °C. On to `CCCc1nn(-c2ccc(C(F)(F)F)cn2)cc1CCCOc1ccc(C(C)(C)C(=O)O)cc1`, for which the melting point was 84 to 85 °C. The compound `O=C(c1ccccc1O)c1ccc(O)c(Cl)c1Cl` showed a melting point of 200 to 202 °C. The compound `Cc1nc2cc3c(cc2c(=O)[nH]1)CCC3` gave a melting point of 284 °C. Compound `Cn1ccnc1CCc1cc2c(cc1O)CCO2` returned a melting point of 190 to 191 °C. On to `O=[N+]([O-])c1ccc(Oc2ccc(S(=O)(=O)NC3CCCCC3)cc2)cc1`, for which the melting point was 94 °C. As to `CCOc1ccc2[nH]c(=O)n(C3CCOCC3)c2c1`, the melting point came out at 155 °C. In the case of `O=CN1CCN(c2nc(N3CCSCC3)c3ncnc(NCc4ccccc4)c3n2)CC1`, the melting point was in the range of 94 to 96 °C. Next, `CCCCCC(CC(=O)Nc1cc(CCC(N)=O)ccc1C(C)(C)C)c1ccc(OC)cc1OC` (configuration not stated): 113 to 114 °C.

For the compound `CSc1cc(C(C)(C)C)c(O)c(-c2nc3ccc(S(=O)(=O)C(F)(F)F)cc3[nH]2)c1C`, the melting point lay within 210 to 211 °C. `COC(=O)Oc1c(Cl)cc(Cl)cc1[N+](=O)[O-]` displayed a melting point of 60 to 61 °C.

`CCOc1nn(CCOc2c(CC)cccc2CC(=O)O)cc1C(=O)NCc1ccc(Cl)cc1Cl`: the melting point is 129 to 131 °C.

Regarding `COc1ccc(CS(=O)(=O)CC(=O)O)cc1O`, the melting point lay within 164 to 165 °C.

In turn, `COc1ccccc1CN[C@H]1CCCN(CC=Cc2ccccc2)[C@H]1c1ccccc1` (relative stereo) yielded a melting point of 54 to 58 °C. In the case of `CCc1cccc(NC(=O)c2ccn3c2CSC3c2cccnc2)n1` (configuration not stated), the melting point turned out to be 150 °C.

`CNC(=O)CS(=O)(=O)Nc1c(F)cccc1Oc1nc(OC)cc(OC)n1` registered a melting point of 193 to 198 °C. Next, `O=S(=O)(Nc1ccc(OCc2ccc3ccccc3n2)cc1)c1c(F)c(F)c(F)c(F)c1F`: 170 to 178 °C; `O=c1nc(-c2ccc(F)cc2)c2ccccc2[nH]1`: 294 to 298 °C.

In turn, `CCn1c(Cc2ccc(C)cc2)nnc1[C@@H](C)NS(=O)(=O)c1ccc(Cl)c(Cl)c1` registered a melting point of 189 to 191 °C. Next, `CNc1cc(NC)nc(NS(=O)(=O)c2ccc(N)cc2)n1`: 262 to 263 °C; `Oc1ccc(-c2nnc(-c3ccc(Oc4ccccc4)cc3)o2)cc1`: 204 to 206 °C. Next, `COC(=O)Cc1ccc(OCCNC(=O)C2Cc3ccccc3N2S(=O)(=O)c2ccc(-c3cccc(C(F)(F)F)c3)c(C)c2)cc1` (configuration not stated): 60 °C; `COc1ccc(CN2C(=O)C(NC(=O)OCc3ccccc3)C2C2COC(=O)O2)cc1OC` (configuration not stated): 135 to 136 °C; `Cc1cn(-c2cccc(C3=Nc4ccc(C#Cc5ccc(F)cc5)cc4NC(=O)C3)c2)cn1`: 210 °C. `CCNc1nc(C#N)c(C#N)nc1-c1cccc(Br)c1`: the melting point was 127 to 128 °C. In turn, `CN1C(=O)CCCc2ccc(Nc3ncc(Cl)c(N[C@@H]4CCCC[C@H]4NS(C)(=O)=O)n3)cc21` displayed a melting point of 127 to 130 °C. Compound `COC(=O)c1ccc(COc2ccc(-c3ncccc3S(=O)(=O)N(C(=O)OCC(C)C)c3ncc(C)nc3OC)cc2)cc1` yielded a melting point of 134 to 135 °C. `Nc1nc2c(Cc3ccsc3)c(I)[nH]c2c(=O)[nH]1` returned a melting point of over 260 °C. As to `CCCc1nccn1-c1ncnc2nc[nH]c12`, the melting point was 242 to 244 °C. Turning to `CC1(C)CN(c2ncc(C(=O)N(CC3CC3)c3cc(C(F)(F)F)ccc3F)c(N)n2)C(=O)N1`, the melting point lay in the range of 188 to 189 °C. The compound `CC1(C)CCC(C)(C)c2cc(C(=O)COc3ccc(C=O)c(O)c3)ccc21` gave a melting point of 111 to 112 °C. `COCCn1cc(C(=O)O)c2c(Cl)cccc21` displayed a melting point of 142 to 145 °C. `Cc1nc(S(=O)(=O)Cc2ccccc2)nc(C)c1Br` registered a melting point of 138 to 139 °C. In turn, `Fc1ccc(Cn2c(NC3CCN(CCNc4nnnn4-c4ccccc4)CC3)nc3ccccc32)cc1` had a melting point of 171 °C.

For `O=C(CN1CCN(C(c2ccc(F)cc2)c2ccc(F)cc2)CC1)Nc1cccc2ccccc12`, the melting point was 173 °C. In turn, `CCOC(=O)C(=CNc1ccc(F)cc1F)C(=O)c1c(F)c(F)c(F)c(F)c1F` displayed a melting point of 97 to 99 °C. Next, `Nc1ccc(C(CC2CCCC2)C(=O)O)cc1` (configuration not stated): 167 to 169 °C. Next, `Clc1ccccc1C1=NOCCS1`: 51 to 52 °C; `CCOC(=O)N(C)n1cccc1C(=O)c1ccccc1F`: 64 to 66 °C. On to `O=[N+]([O-])c1cccc(OCc2ccc3ccccc3n2)c1`, for which the melting point worked out at 109 °C. For the compound `O=C(NC(=O)C(Br)CBr)Nc1ccc(Cl)cc1` (configuration not stated), the melting point lay within 162 to 163 °C.

As to `COC(=O)CN1C(=S)C(C(C)C)Sc2ccccc21` (configuration not stated), the melting point lay within 99 to 100 °C. Turning to `Fc1ccc(C(c2ccc(Cl)cc2Cl)C(F)n2cncn2)cc1` (configuration not stated), the melting point was in the range of 96 to 104 °C.

As for `COC(=O)CC(NCc1ccccc1)=C(C(=O)OC)C(=O)C(F)(F)F`, the melting point lay within 89.5 to 90.5 °C. Next, `COC(=O)c1cc(-c2ccc(OC)c(F)c2)nn(CC2CCCC2)c1=O`: 56 to 66 °C.

As for `CCOC(=O)C(=CNc1ccccc1)C(=O)OCC`, the melting point was 45 to 46 °C.

As to `Cc1cc(C)c(COc2cccnc2N)c(C)c1`, the melting point was 160 to 166 °C. In the case of `Nc1cc(Sc2ccc3c(C(=O)Nc4cccc(OC(F)(F)F)c4)cccc3c2)ncn1`, the melting point was in the range of 197 to 199 °C. `CCC(CC)c1cccc2nc(C(O)c3c(C)cc(C)cc3C)n(C)c12` (configuration not stated) returned a melting point of 132 to 134 °C. Turning to `CC(C)(C)[Si](C)(C)Oc1ccc2c(c1)Oc1ccccc1C2=C1C2CC3CC(C2)CC1C3`, the melting point stood at 137 °C. For the compound `O=C(Oc1ccccc1)Oc1c2c(nc3ccccc13)CCN(C(=O)Oc1ccccc1)CC2`, the melting point came to 232 °C.

The compound `O=C1CCC(c2ccc(NC(=O)CCNCCc3ccccc3)cc2)=NN1` had a melting point of 130 to 132 °C.

As to `COc1ccc(/C(=C\C=C\C(=O)NCCCCc2cccnc2)c2cccnc2)cc1`, the melting point lay within 108 to 110 °C. For the compound `COc1cccc(C(=NO)c2ccc(F)cc2F)c1`, the melting point fell in the range of 122 to 127 °C. Take `CCOC(=O)C1=C(N)NC(C)=C(C(=O)OC)C1c1cc([N+](=O)[O-])ccc1Cl` (configuration not stated): the melting point was determined as 124 °C. Compound `COC(=O)CNC(=O)n1ccc(O)cc1=O` yielded a melting point of 124 to 126 °C. `CCCCCC(CC(=O)Nc1cc(C(N)=O)ccc1C(C)(C)C)c1ccc(OCCCNS(C)(=O)=O)cc1OC` (configuration not stated) yielded a melting point of 77 to 79 °C. In the case of `CC(=O)n1cc(C#N)c(-c2ccc(F)c(Cl)c2F)c1`, the melting point lay in the range of 182 to 183 °C.

`NC1=c2c3c(ccc2=CCS1)CCCN3`: the melting point lay within 214 to 216 °C.

In turn, `O=C(O)c1csc(Cn2cc(C3c4ccc(Br)cc4C=Cc4cc(Br)ccc43)c(=S)[nH]c2=O)n1` registered a melting point of 215 to 217 °C. In turn, `Nc1nc(NS(=O)(=O)c2ccccc2[N+](=O)[O-])n[nH]1` registered a melting point of 255 to 256 °C. Next, `CCOC(=O)CN(CC(=O)OCC)c1ccc(C=O)c(O)c1`: 190 °C. The compound `CCC(=O)c1cc(Cl)c(Cl)c2c1OCC(C(=O)O)O2` (configuration not stated) registered a melting point of 229 to 231 °C. For the compound `O=C(c1ccccc1)c1cccnc1-c1nc(NC2CCCCC2)c2ccccc2n1`, the melting point is 204 to 208 °C.

In turn, `CCn1c(C)nc2cc(C(F)(F)F)c(Cl)c(N)c21` came in with a melting point of 176 to 178 °C. Next, `CCOC(=O)c1ccc(NC(=N)c2ccc(OC)cc2)cc1`: 128 to 132 °C. `COc1cc(C(=O)OCc2cc(COC(=O)c3ccc(O)c(OC)c3)cc(COC(=O)c3ccc(O)c(OC)c3)c2)ccc1O` registered a melting point of 161 °C.

The compound `COc1ccc(CCc2ccc(C(=O)O)cc2)cc1OC(C)CCCc1ccccc1` (configuration not stated) showed a melting point of 112 °C. As for `CNC(=S)c1c(C(F)(F)F)nc(C(F)F)c(C(=O)OC)c1NC(C)C`, the melting point fell in the range of 129 to 131 °C. Next, `Cc1c(C(=O)O)cnn1-c1cc(Cl)cc(Cl)c1`: 229 to 230 °C; `COc1ccc(-n2nc(CCC(=O)O)cc2-c2ccc(Cl)cc2)cc1`: 126 to 128 °C; `Cc1[nH]c2cccnc2c1-c1ccc(F)cc1`: 199 to 206 °C. In the case of `c1ccc(-c2nnc3cc(-c4ccsc4)c(OCc4ncn[nH]4)nn23)cc1`, the melting point was 264 to 266 °C. In turn, `CCCC(=O)OC1(C(=O)COC(=O)CC)CCC2C3CC(C)C4=CC(=O)C=CC4(C)C3C(O)CC21C` (configuration not stated) came in with a melting point of 126 °C.
